Test results published in patent US9650339B2, “Inhibitors of histone demethylases” (Gilead Sciences, Inc., priority 2013, dated 2017).

Columns and labels:
Format in all cases: biochemical
[1] = target: T1, KDM3B (JMJD1B) (Homo sapiens, UniProt Q7LBC6); experiment: Histone lysine demethylase AlphaLISA assay, KDM3B; details: read-out: KDM3B HDME Inhibition IC50
T1 construct: 842-1761; host or cells: Bac (baculovirus system)
T1 sequence (Q7LBC6 842-1761): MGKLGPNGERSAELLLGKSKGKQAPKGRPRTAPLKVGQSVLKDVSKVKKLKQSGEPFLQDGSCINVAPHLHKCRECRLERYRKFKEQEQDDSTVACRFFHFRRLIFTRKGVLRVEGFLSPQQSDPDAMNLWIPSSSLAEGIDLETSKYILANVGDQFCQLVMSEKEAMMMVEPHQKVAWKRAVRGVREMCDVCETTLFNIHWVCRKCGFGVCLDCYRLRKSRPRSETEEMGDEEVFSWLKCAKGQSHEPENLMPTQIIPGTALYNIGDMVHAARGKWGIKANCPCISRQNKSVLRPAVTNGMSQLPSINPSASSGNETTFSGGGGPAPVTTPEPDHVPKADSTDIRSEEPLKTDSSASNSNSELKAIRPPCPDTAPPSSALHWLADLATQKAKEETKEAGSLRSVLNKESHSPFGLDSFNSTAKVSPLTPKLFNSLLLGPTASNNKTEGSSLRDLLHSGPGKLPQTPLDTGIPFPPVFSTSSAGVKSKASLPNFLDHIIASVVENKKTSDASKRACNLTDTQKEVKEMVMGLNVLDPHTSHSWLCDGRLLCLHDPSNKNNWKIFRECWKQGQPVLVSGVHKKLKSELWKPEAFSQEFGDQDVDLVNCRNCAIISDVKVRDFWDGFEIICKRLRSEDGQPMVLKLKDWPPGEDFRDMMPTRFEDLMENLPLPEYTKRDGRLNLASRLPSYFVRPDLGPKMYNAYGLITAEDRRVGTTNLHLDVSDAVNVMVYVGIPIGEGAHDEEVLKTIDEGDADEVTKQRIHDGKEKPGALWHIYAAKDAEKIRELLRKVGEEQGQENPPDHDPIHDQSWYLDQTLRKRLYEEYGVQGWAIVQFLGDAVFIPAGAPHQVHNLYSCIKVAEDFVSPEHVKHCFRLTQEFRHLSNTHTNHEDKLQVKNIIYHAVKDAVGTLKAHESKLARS
Method: (§1) Assays are performed analogously to the protocol described by PerkinElmer (Roy et al. PerkinElmer Technical Note: AlphaLISA #12, April 2011)
(§2) Enzymes are dissolved in enzyme buffer and incubated for 10 min before being added to 3% DMSO solutions of compounds in enzyme buffer. Incubated for another 10 minutes, before substrate solution is added and the reaction mixture is incubated at room temperature. 10 μL acceptor beads, suspended in Epigenetic Buffer (Perkin Elmer AL008) from stock, are added and the suspension is incubated in the dark at room temperature, before a suspension of streptavidin donor beads (Perkin Elmer 6760002) in Epigenetic Buffer is added. After incubation at room temperature in the dark the plates are read. […]
(§3) BK9M2: Biotin-ARTKQTAR(KMe2)STGGKAPRKQ-NH2 (AnaSpec 64359) […]
(§4) Substrate Solution: Substrate, 25 μM L-Asc, and 10 μM α-KG in Buffer A.

[2] = target: KDM6A (UTX) (Homo sapiens, UniProt O15550); experiment: Histone lysine demethylase AlphaLISA assay, KDM6A; details: read-out: KDM6A HDME Inhibition IC50
In short: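 AlphaLISA demethylation readout: enzyme preincubated 10 min, then 10 min with compounds in 3% DMSO buffer, before biotinylated methyl-lysine histone peptide substrate with 25 μM L-Asc and 10 μM α-KG, room temperature. Acceptor beads then streptavidin donor beads added, dark incubation, plates read.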

[3] = target: T2, KDM3A (JMJD1A) (Homo sapiens, UniProt Q9Y4C1); experiment: Histone lysine demethylase AlphaLISA assay, KDM3A; details: read-out: KDM3 A HDME Inhibition IC50
T2 construct: 2-end; purchased BPS Bioscience, US; host or cells: Bac (baculovirus system)
T2 sequence (Q9Y4C1 2-1321 limits assumed): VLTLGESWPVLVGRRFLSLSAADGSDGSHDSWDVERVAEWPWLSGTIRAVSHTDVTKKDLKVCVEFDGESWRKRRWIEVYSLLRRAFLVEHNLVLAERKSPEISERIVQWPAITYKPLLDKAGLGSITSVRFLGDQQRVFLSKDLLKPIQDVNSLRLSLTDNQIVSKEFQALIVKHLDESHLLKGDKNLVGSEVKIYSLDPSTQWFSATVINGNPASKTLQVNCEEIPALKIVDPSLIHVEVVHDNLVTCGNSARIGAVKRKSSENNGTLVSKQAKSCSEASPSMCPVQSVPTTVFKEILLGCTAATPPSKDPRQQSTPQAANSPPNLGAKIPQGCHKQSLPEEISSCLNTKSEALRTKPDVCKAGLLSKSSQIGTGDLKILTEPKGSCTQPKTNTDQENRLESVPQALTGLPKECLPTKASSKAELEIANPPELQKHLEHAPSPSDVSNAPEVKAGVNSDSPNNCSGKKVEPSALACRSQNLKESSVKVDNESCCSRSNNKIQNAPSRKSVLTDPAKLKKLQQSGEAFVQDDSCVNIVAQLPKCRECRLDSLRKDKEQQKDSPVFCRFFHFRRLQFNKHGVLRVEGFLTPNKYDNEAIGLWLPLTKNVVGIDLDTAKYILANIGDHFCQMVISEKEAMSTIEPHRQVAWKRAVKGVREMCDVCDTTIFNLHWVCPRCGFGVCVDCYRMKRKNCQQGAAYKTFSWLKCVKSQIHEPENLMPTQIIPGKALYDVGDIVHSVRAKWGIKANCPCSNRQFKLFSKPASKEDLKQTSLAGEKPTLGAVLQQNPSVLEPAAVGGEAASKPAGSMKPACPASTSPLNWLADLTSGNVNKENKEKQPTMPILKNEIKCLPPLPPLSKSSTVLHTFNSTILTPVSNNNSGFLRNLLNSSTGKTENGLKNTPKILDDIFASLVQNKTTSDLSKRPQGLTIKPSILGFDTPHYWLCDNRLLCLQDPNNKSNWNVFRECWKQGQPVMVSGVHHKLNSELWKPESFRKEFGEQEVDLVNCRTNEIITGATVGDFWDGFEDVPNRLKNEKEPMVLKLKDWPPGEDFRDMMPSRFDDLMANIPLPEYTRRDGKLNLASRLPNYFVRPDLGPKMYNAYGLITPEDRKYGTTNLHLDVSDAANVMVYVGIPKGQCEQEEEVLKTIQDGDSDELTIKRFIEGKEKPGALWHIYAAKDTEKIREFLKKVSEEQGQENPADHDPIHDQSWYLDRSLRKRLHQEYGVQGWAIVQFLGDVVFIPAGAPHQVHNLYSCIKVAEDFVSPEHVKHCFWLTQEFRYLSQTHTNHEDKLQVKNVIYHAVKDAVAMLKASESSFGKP
Method: as §1, §2, §3, §4

Measured: IC50

Sequence of KDM6A (UTX) (O15550 919-1401): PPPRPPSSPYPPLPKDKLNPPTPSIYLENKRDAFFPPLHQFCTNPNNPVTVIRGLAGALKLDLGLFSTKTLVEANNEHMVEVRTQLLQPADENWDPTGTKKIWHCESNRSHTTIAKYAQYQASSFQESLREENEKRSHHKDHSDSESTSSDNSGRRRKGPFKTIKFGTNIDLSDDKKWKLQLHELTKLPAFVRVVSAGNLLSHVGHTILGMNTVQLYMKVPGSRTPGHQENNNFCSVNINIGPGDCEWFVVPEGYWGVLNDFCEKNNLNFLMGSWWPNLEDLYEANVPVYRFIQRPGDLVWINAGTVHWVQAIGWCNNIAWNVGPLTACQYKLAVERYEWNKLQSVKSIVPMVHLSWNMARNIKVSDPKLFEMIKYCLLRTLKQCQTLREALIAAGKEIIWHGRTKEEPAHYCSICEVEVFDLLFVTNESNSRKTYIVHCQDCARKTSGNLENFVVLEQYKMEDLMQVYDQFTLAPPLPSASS

CN(C)CCCCNCc1cc(CNC2CC2)ccn1 [Compound 10, N-{[2-({[4-(dimethylamino)butyl]-amino}methyl)pyridin-4-yl]methyl}-cyclopropanamine]
> 2500 nM: all assays above

CC1CCCCN1CCCNCc1cc(CNC2CC2)ccn1 (stereo not drawn) [Compound 11, N-{[2-({[3-(2-methylpiperidin-1-yl)propyl]amino}methyl)-pyridin-4-yl]methyl}-cyclopropanamine]
> 2500 nM: all assays above

CCCNCc1cc(CNC2CC2)ccn1 [Compound 12, N-({2-[(propylamino)methyl]-pyridin-4-yl}methyl)-cyclopropanamine]
> 2500 nM: all assays above

CN(C)C(=O)CNCc1cc(CNCCF)ccn1 [Compound 14, 2-{[(4-{[(2-fluoroethyl)amino]-methyl}pyridin-2-yl)methyl]amino}-N,N-dimethylacetamide]
> 2500 nM: all assays above

CN(C)CCNCc1ccnc(CNCC(=O)N(C)C)c1 [Compound 15, 2-({[4-({[2-(dimethylamino)ethyl]-amino}methyl)pyridin-2-yl]methyl}amino)-N,N-dimethylacetamide]
> 2500 nM: all assays above

c1ccc(CN2CCC[C@H]2CNCc2cc(CNCC3CC3)ccn2)cc1 [Compound 16, {[(2S)-1-benzylpyrrolidin-2-yl]methyl}[(4-{[(cyclopropylmethyl)-amino]methyl}pyridin-2-yl)methyl]amine]
> 2500 nM: all assays above

CNCc1ccnc(CNCCCN(C)Cc2ccccc2)c1 [Compound 17, benzyl(methyl){3-[({4-[(methylamino)methyl]-pyridin-2-yl)methyl)-amino]propyl}-amine]
> 2500 nM: all assays above

CN(C)CCNCc1cc(CNC(C#N)C2CC2)ccn1 (stereo not drawn) [Compound 21, 2-cyclopropyl-2-({[2-({[2-(dimethylamino)ethyl]-amino}methyl)pyridin-4-yl]methyl}amino)-acetonitrile]
> 2500 nM: all assays above

CC(C#N)NCc1ccnc(CNCCCN(C)C)c1 (stereo not drawn) [Compound 22, 2-({[2-({[3-(dimethylamino)propyl]-amino}methyl)pyridin-4-yl]methyl}amino)-propanenitrile]
> 2500 nM: all assays above

N#CCNCc1ccnc(CNCCCCN(Cc2ccccc2)C2CC2)c1 [Compound 23, 2-[({2-[({4-[benzyl(cyclopropyl)-amino]butyl}amino)-methyl]pyridin-4-yl}methyl)amino]-acetonitrile]
> 2500 nM: all assays above

CNC(C#N)c1ccnc(CNCCCN(C)C)c1 (stereo not drawn) [Compound 24, 2-[2-({[3-(dimethylamino)propyl]-amino}methyl)pyridin-4-yl]-2-(methylamino)-acetonitrile]
> 2500 nM: all assays above

CCN(CCN(C)C)C(=O)CNCc1cc(CNC(=O)C(F)(F)F)ccn1 [Compound 25, N-[(2-{[({[2-(dimethylamino)ethyl]-(ethyl)carbamoyl}-methyl)amino]methyl}-pyrtdin-4-yl)methyl]-2,2,2-trifluoroacetamide]
> 2500 nM: all assays above

CN(C)C(=O)CNCc1cc(/C=N/CCCc2ccccc2)ccn1 [Compound 34, N,N-dimethyl-2-[({4-[[(3-phenylpropyl)imino]-methyl]pyridin-2-yl}methyl)amino]-acetamide]
> 2500 nM: all assays above

CC1CC1/N=C/c1ccnc(CNCC(=O)N(C)C)c1 (stereo not drawn) [Compound 35, N,N-dimethyl-2-[({4-[N-(2-methylcyclopropyl)-carboximidoyl]pyridin-2-yl}methyl)amino]-acetamide]
> 2500 nM: all assays above

CN(C)C(=O)CNCc1cc(/C=N/CCC2CCCCC2)ccn1 [Compound 36, 2-[({4-[[(2-cyclohexylethyl)imino]-methyl]pyridin-2-yl}methyl)amino]-N,N-dimethylacetamide]
> 2500 nM: all assays above

CN(C)CCCNCc1cc(/C=N/CCN(C)C)ccn1 [Compound 38, ({4-[{[2-(dimethylamino)ethyl]-imino}methyl]pyridin-2-yl}methyl)[3-(dimethylamino)-propyl]amine]
> 2500 nM: all assays above

CCSCCNCc1cc(/C=N/C2CC2)ccn1 [Compound 39, N-{[2-({[2-(ethylsulfanyl)-ethyl]amino}methyl)pyridin-4-yl]methylidene}-cyclopropanamine]
> 2500 nM: all assays above

CN1CCCC1CCNCc1cc(/C=N/C2CC2)ccn1 (stereo not drawn) [Compound 40, N-{[2-({[2-(l-methylpyrrolidin-2-yl)ethyl]amino}methyl)-pyridin-4-yl]methylidene}-cyclopropanamine]
> 2500 nM: all assays above

C(=N/C1CC1)/c1ccnc(CNCCCN2CCCC2)c1 [Compound 42, N-{[2-({[3-(pyrrolidin-1-yl)propyl]amino}-methyl)pyridin-4-yl]methylidene}-cyclopropanamine]
> 2500 nM: all assays above

CN(C)C/C=C/CNCc1cc(/C=N/C2CC2)ccn1 [Compound 43, N-{[2-({[(2E)-4-(dimethylamino)but-2-en-1-yl]amino}-methyl)pyridin-4-yl]methylidene}-cyclopropanamine]
> 2500 nM: all assays above
